This is an account of results in patent US9394260B2, “Pyrimidinone carboxamide inhibitors of endothelial lipase” (BRISTOL-MYERS SQUIBB COMPANY, priority 2012, dated 2016).

Molecules are shown by their SMILES.

The target of this experiment is T1, endothelial lipase (EL) (Homo sapiens, UniProt Q9Y5X9).
T1 construct: transformed by RAGE technology (Athersys) to overexpress endogenous EL; endogenous in cells; conditioned medium used as the enzyme source
T1 sequence (Q9Y5X9 21-500): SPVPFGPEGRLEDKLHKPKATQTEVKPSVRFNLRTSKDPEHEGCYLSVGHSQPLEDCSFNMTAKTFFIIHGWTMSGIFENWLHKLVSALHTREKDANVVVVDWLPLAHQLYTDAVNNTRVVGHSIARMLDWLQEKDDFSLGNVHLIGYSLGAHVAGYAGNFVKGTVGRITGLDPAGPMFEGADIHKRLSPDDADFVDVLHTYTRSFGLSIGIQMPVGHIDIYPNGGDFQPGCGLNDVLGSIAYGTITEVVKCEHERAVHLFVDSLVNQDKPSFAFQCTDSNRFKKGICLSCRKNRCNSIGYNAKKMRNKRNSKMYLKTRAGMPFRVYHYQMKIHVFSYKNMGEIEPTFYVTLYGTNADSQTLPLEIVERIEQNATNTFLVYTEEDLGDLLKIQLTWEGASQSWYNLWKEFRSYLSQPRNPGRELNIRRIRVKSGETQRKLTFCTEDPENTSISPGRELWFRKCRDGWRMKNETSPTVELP
Put plainly: Endothelial lipase (EL) enzymatic assay with fluorescent substrate A10070 in DMPG vesicles. The conditions noted are these: conditioned media from HT-1080 cells overexpressing endogenous EL, 20 min preincubation at 37° C. The format is biochemical. Here is the method: Endothelial lipase activity was measured using a fluorescent substrate, A10070, (Invitrogen, CA) doped into an artificial vesicle containing DMPG (Avanti Polar Lipids) as the excipient. Vesicles were prepared by combining 285 μL of 1 mM DMPG in a 1:1 mixture of MeOH and CHCl3 with 15 μL of 1 mM A10070 in a 1:1 mixture of MeOH and CHCl3. The mixture was dried under nitrogen and resuspended in 150 μL of 50 mM HEPES pH 8.0 buffer containing 100 mM NaCl and 0.2 mM EDTA. The sample was allowed to sit at rt for 15 min and then was sonicated 3×4 mins on ice with a Branson Sonicator using duty cycle 1. This preparation provides vesicles with a mole fraction of 0.05 for the FRET substrate.
The enzymatic assay was measured using white, opaque 96-well half area plates. Each well contained 60 μL of assay buffer (50 mM HEPES pH 8.0, 50 mM NaCl and 1 mM CaCl2) and 2 ul of a DMSO solution containing compound of interest. Conditioned media obtained from HT-1080 cells, which were transformed by RAGE technology (Athersys) to overexpress endogenous EL, was added and the reaction was allowed to incubate for 20 min at 37° C. with gentle agitation. The reaction was started by the addition of 20 μL of a 1:4 dilution of vesicles. The final total reaction volume was 100 μL. The reaction rates were measured on a Gemini plate reader with an excitation wavelength of 488 nm and a emission of 530 nm. Readings were taken every 20 seconds for 10 min with agitation between each reading. The slope of the linear portion of the readout was used to calculate the rate of the reaction.
The exemplified examples disclosed in the present invention were tested in the EL assay described above and found having EL inhibitory activity. A range of EL IC50 values of ≦10 μM (10000 nM) was observed.
For `C[C@@H](NC(=O)c1[nH]c(=O)[nH]c(=O)c1N)c1cccc(-c2cnn(CCc3c[nH]c4ccccc34)c2)c1` [Example 155, (R)-N-(1-(3-(1-(2-(1H-indol-3-yl)ethyl)-1H-pyrazol-4-yl)phenyl)ethyl)-5-amino-2,6-dioxo-1,2,3,6-tetrahydro-pyrimidine-4-carboxamide], the IC50 (commonly the midpoint of a concentration-inhibition curve) was 422 nM.

As to `C[C@@H](NC(=O)c1[nH]c(=O)[nH]c(=O)c1N)c1cccc(-c2cnn(Cc3nc4ccccc4s3)c2)c1` [Example 160, (R)-5-amino-N-(1-(3-(1-(benzo[d]thiazol-2-ylmethyl)-1H-pyrazol-4-yl)phenyl)ethyl)-2,6-dioxo-1,2,3,6-tetra-hydropyrimidine-4-carboxamide], the IC50 came to 369 nM. This IC50 and that of the compound before are within 1.5-fold of each other.

On to `C[C@@H](NC(=O)c1[nH]c(=O)[nH]c(=O)c1N)c1cccc(-c2cnn(CC3CCN(C(=O)OCc4ccccc4)CC3)c2)c1` [Example 161, (R)-benzyl 4-((4-(3-(1-(5-amino-2,6-dioxo-1,2,3,6-tetra-hydropyrimidine-4-carboxamido)ethyl)phenyl)-1H-pyrazol-1-yl)methyl) piperidine-1-carboxylate], for which the IC50 came out at 441 nM. The IC50 values of the last two compounds are within 1.5-fold of each other.

The compound `COc1ccc(CNc2c(C(=O)N[C@H](C)CCc3ccc(Cl)c(Cl)c3)[nH]c(=O)n(C)c2=O)cc1` [Example 171, (R)—N-(4-(3,4-Dichlorophenyl)butan-2-yl)-5-(4-methoxybenzylamino)-1-methyl-2,6-dioxo-1,2,3,6-tetrahydropyrimidine-4-carboxamide] displayed an IC50 of 358 nM.

Compound `CCCOc1cc(F)ccc1CNC(=O)c1c(O)c(=O)n(C)c(=O)n1CCC` [Example 176, N-(4-fluoro-2-propoxybenzyl)-5-hydroxy-1-methyl-2,6-dioxo-3-propyl-1,2,3,6-tetra-hydropyrimidine-4-carboxamide] registered an IC50 of 4640 nM. This IC50 is about 13-fold higher than that of the compound before.

`C[C@@H](NC(=O)c1[nH]c(=O)[nH]c(=O)c1O)c1cccc(-c2cnn(Cc3ccccc3)c2)c1` [Example 181, (R)-N-(1-(3-(1-benzyl-1H-pyrazol-4-yl)phenyl)ethyl)-5-hydroxy-2,6-dioxo-1,2,3,6-tetra-hydropyrimidine-4-carboxamide]: the 50% inhibitory concentration (IC50) amounted to 10 nM. Against the preceding compound, the IC50 is about 460-fold lower.

On to `C[C@@H](NC(=O)c1[nH]c(=O)[nH]c(=O)c1O)c1cccc(OCc2ccccc2)c1` [Example 182, (R)-N-(1-(3-(benzyloxy)phenyl)ethyl)-5-hydroxy-2,6-dioxo-1,2,3,6-tetrahydro-pyrimidine-4-carboxamide], for which the IC50 was found to be 10 nM.
